What was measured:
Assay in all cases: Bliss excess, mean over the matrix (fraction); higher = more synergy
[1] = tested on: 647-V (Bladder Carcinoma)
How it was run: (§1)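 Bliss excess equals the observed combination effect minus the expected value EA + EB − EA·EB, where EA and EB are the effects of each agent alone. Combination Emax is the second-highest inhibition within the matrix. Inhibition was scaled from CellTiter-Glo 2.0 luminescence, with 0 set by vehicle wells and 1 by blank wells, after 72 hours of two-drug dosing of cells plated in 1536-well plates.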

A172 (Glioblastoma) = tested on: A172 (Glioblastoma)
How it was run: as §1

D-392MG (Glioblastoma) = tested on: D-392MG (Glioblastoma)
How it was run: as §1

[2] = tested on: EFM-192A (Breast Carcinoma)
How it was run: as §1

EW-22 (Ewing's Sarcoma) = tested on: EW-22 (Ewing's Sarcoma)
How it was run: as §1

H4 (Low Grade Glioma) = tested on: H4 (Low Grade Glioma)
How it was run: as §1

HuO9 (Osteosarcoma) = tested on: HuO9 (Osteosarcoma)
How it was run: as §1

[3] = tested on: KG-1 (Acute Myeloid Leukemia)
How it was run: as §1

MSTO-211H (Mesothelioma) = tested on: MSTO-211H (Mesothelioma)
How it was run: as §1

[4] = tested on: NOMO-1 (Acute Myeloid Leukemia)
How it was run: as §1

[5] = tested on: PA-TU-8902 (Pancreatic Carcinoma)
How it was run: as §1

[6] = tested on: SKN-3 (Head and Neck Carcinoma)
How it was run: as §1

[7] = tested on: SLVL (B-Cell Non-Hodgkin's Lymphoma)
How it was run: as §1

[8] = tested on: SNU-61 (Colorectal Carcinoma)
How it was run: as §1

[9] = tested on: SW48 (Colorectal Carcinoma)
How it was run: as §1

[10] = tested on: SW948 (Colorectal Carcinoma)
How it was run: as §1

[11] = tested on: TYK-nu (Ovarian Carcinoma)
How it was run: as §1

[12] = tested on: U-118-MG (Low Grade Glioma)
How it was run: as §1

[13] = tested on: WSU-DLCL2 (B-Cell Non-Hodgkin's Lymphoma)
How it was run: as §1

[14] = tested on: YT (Other Blood Carcinomas)
How it was run: as §1

Row | SMILES | Bliss excess [1] | Bliss excess (A172 (Glioblastoma)) | Bliss excess (D-392MG (Glioblastoma)) | Bliss excess [2] | Bliss excess (EW-22 (Ewing's Sarcoma)) | Bliss excess (H4 (Low Grade Glioma)) | Bliss excess (HuO9 (Osteosarcoma)) | Bliss excess [3] | Bliss excess (MSTO-211H (Mesothelioma)) | Bliss excess [4] | Bliss excess [5] | Bliss excess [6] | Bliss excess [7] | Bliss excess [8] | Bliss excess [9] | Bliss excess [10] | Bliss excess [11] | Bliss excess [12] | Bliss excess [13] | Bliss excess [14]
1 | Cc1c2c(nn1C)CSCc1cc(n(C)n1)CSc1cc(c3ccccc3c1)OCCCc1c(C(=O)O)n(C)c3c-2c(Cl)ccc13 [AZD5991] + CC1(C)CCC(CN2CCN(c3ccc(C(=O)NS(=O)(=O)c4ccc(NCC5CCOCC5)c([N+](=O)[O-])c4)c(Oc4cnc5[nH]ccc5c4)c3)CC2)=C(c2ccc(Cl)cc2)C1 [Venetoclax] (first compound max 1 µM, 7x7, partner max 1 µM) | -0.0271 | -0.0222 | 0.0314 | 0.0257 | 0.128 | 0.0384 | 0.0182 | 0.119 | -0.0455 | 0.256 | -0.0595 | -0.03 | 0.147 | -0.0143 | 0.0059 | -0.003 | -0.0144 | -0.0328 | 0.173 | -0.0017
2 | NC1(C(=O)N[C@@H](CCO)c2ccc(Cl)cc2)CCN(c2ncnc3[nH]ccc23)CC1 [Capivasertib] + COc1nnc2ccc(N3CCC(c4ccc(OCCN5CCN(C)C(=O)[C@H]5C)cc4)CC3)nn12 [AZD5153] (first compound max 10 µM, 7x7, partner max 1 µM) | -0.0536 | 0.0178 | -0.015 | 0.0866 | 0.08 | -0.0057 | -0.0142 | -0.0162 | 0.0056 | -0.0061 | -0.0841 | 0.0027 | -0.102 | -0.01 | -0.0226 | -0.0082 | 0.0114 | 0.057 | -0.0546 | 0.007
3 | Cc1c2c(nn1C)CSCc1cc(n(C)n1)CSc1cc(c3ccccc3c1)OCCCc1c(C(=O)O)n(C)c3c-2c(Cl)ccc13 [AZD5991] + C[C@@H]1COCCN1C2=NC(=NC(=C2)C3(CC3)[S@](=N)(=O)C)C4=C5C=CNC5=NC=C4 [AZD6738] (first compound max 1 µM, 7x7, partner max 10 µM) | 0.0802 | -0.0012 | -0.0053 | 0.0335 | 0.0236 | 0.0274 | 0.0259 | 0.0155 | 0.0032 | -0.0006 | 0.0111 | 0.0678 | 0.031 | 0.0435 | -0.0259 | 0.0387 | -0.0265 | 0.0187 | 0.0004 | -0.0498
4 | Cc1c2c(nn1C)CSCc1cc(n(C)n1)CSc1cc(c3ccccc3c1)OCCCc1c(C(=O)O)n(C)c3c-2c(Cl)ccc13 [AZD5991] + CCN(CCO)CCCOc1ccc2c(Nc3cc(CC(=O)Nc4cccc(F)c4)[nH]n3)ncnc2c1 [AZD2811] (first compound max 1 µM, 7x7, partner max 1 µM) | 0.0896 | -0.0101 | 0.0121 | 0.0012 | 0.0711 | 0.0207 | -0.0035 | 0.032 | 0.0477 | 0.0894 | -0.0356 | 0.0134 | 0.0734 | 0.0315 | -0.0063 | -0.0014 | 0.0438 | 0.0042 | 0.0804 | 0.0185
5 | CN(CCO)CC[C@H](CSc1ccccc1)Nc1ccc(S(=O)(=O)NC(=O)c2ccc(N3CCC([C@@H](O)c4ccccc4-c4ccc(Cl)cc4)CC3)cc2)cc1S(=O)(=O)C(F)(F)F [AZD4320] + C=CCn1c(=O)c2cnc(Nc3ccc(N4CCN(C)CC4)cc3)nc2n1-c1cccc(C(C)(C)O)n1 [AZD1775] (first compound max 1 µM, partner max 1 µM) | 0.0479 | -0.0101 | 0.0474 | 0.0171 | 0.0897 | 0.0551 | 0.0484 | 0.108 | 0.0585 | 0.0233 | -0.0357 | -0.0056 | 0.0422 | -0.0175 | 0.038 | 0.0744 | -0.0845 | 0.0108 | -0.009 | -0.0156
6 | C[C@@H](c1ccc2nccn2c1)n1nnc2ncc(-c3cnn(C)c3)nc21 [Savolitinib] + Cc1c2c(nn1C)CSCc1cc(n(C)n1)CSc1cc(c3ccccc3c1)OCCCc1c(C(=O)O)n(C)c3c-2c(Cl)ccc13 [AZD5991] (first compound max 1 µM, 7x7, partner max 1 µM) | -0.0594 | -0.0747 | -0.001 | -0.0499 | -0.0595 | 0.0076 | -0.0416 | -0.0383 | -0.0337 | 0.0497 | -0.0699 | -0.0758 | -0.0946 | -0.0429 | -0.0232 | -0.0305 | -0.0393 | 0.0095 | 0.0276 | -0.0156
7 | NC1(C(=O)N[C@@H](CCO)c2ccc(Cl)cc2)CCN(c2ncnc3[nH]ccc23)CC1 [Capivasertib] + CC(=O)c1c(C)c2cnc(Nc3ccc(N4CCNCC4)cn3)nc2n(C2CCCC2)c1=O [Palbociclib] (first compound max 10 µM, 7x7, partner max 10 µM) | 0.0129 | -0.0183 | 0.0094 | -0.0334 | -0.0152 | 0.0014 | -0.0311 | -0.0421 | -0.0547 | 0.0378 | -0.0606 | -0.0502 | -0.024 | -0.0289 | -0.0217 | -0.0442 | -0.0208 | -0.0154 | 0.0205 | -0.0344
8 | Cc1nc(Nc2ncc(C(=O)Nc3c(C)cccc3Cl)s2)cc(N2CCN(CCO)CC2)n1 [Dasatinib] + CC(=O)Nc1cccc(-n2c(=O)n(C3CC3)c(=O)c3c(Nc4ccc(I)cc4F)n(C)c(=O)c(C)c32)c1 [Trametinib] (first compound max 2 µM, 7x7, partner max 1 µM) | -0.002 | -0.0823 | 0.0155 | -0.0545 | -0.0457 | -0.0488 | 0.0175 | 0.0659 | -0.001 | -0.126 | 0.0404 | 0.004 | -0.147 | 0.0295 | 0.225 | -0.008 | 0.0895 | -0.0736 | 0.101 | -0.0521
9 | COc1cccc2c1C(=O)c1c(O)c3c(c(O)c1C2=O)C[C@@](O)(C(=O)CO)C[C@@H]3O[C@H]1C[C@H](N)[C@H](O)[C@H](C)O1 [Doxorubicin] + Cc1cc2ncnn2cc1Nc1ncc2c(n1)n(C1CCOCC1)c(=O)n2C [AZD7648] (first compound max 1 µM, 7x7, partner max 10 µM) | 0.107 | 0.0789 | 0.0458 | -0.0216 | 0.061 | 0.0066 | 0.0731 | 0.0044 | 0.115 | 0.128 | 0.0081 | 0.0045 | 0.0656 | -0.0124 | 0.0535 | 0.0438 | 0.0591 | 0.0909 | 0.101 | 0.0344
10 | Cc1c2c(nn1C)CSCc1cc(n(C)n1)CSc1cc(c3ccccc3c1)OCCCc1c(C(=O)O)n(C)c3c-2c(Cl)ccc13 [AZD5991] + CN(C)CCCOc1ccc(-c2ccc3ncc4c(c3c2)n(C2CCOCC2)c(=O)n4C)cn1 [AZD0156] (first compound max 1 µM, 7x7, partner max 1 µM) | 0.015 | -0.0019 | -0.0225 | -0.0427 | -0.0015 | 0.0376 | -0.0171 | 0.0115 | -0.0129 | -0.0177 | 0.0116 | -0.0173 | 0.0198 | -0.0047 | 0.0051 | -0.0205 | -0.034 | -0.0035 | -0.0033 | -0.0197

— the supplement of paper PMC11061612
